Source: ChEMBL document CHEMBL6092213, “Rational Exploration of 2,4-Diaminopyrimidines as DHFR Inhibitors Active against Mycobacterium abscessus and Mycobacterium avium, Two Emerging Human Pathogens” (J Med Chem, 2024)
Converted amounts (≈) assume the structure as drawn.

Key:
[1] = Inhibition of Mycobacterium avium DHFR using 7, 8 dihydrofolate as substrate incubated for 1 hr by plate reader assay
[2] = Inhibition of Mycobacterium abscessus DHFR using 7, 8 dihydrofolate as substrate incubated for 1 hr by plate reader assay; design: species or system Mycobacteroides abscessus
[3] = system: Mycobacteroides abscessus; assay: Antibacterial activity against Mycobacterium abscessus ATCC 19977 incubated for 2 days by resazurin microtiter assay; type: functional; settings: ATCC 19977, 48 h, time 2 day
[4] = Metabolic stability in mouse hepatocytes assessed as intrinsic clearance at 0.5 uM measured upto 120 mins in presence of NADPH by UPLC-MS/MS analysis; type: ADME, cell-based, Hepatocyte; settings: 2 h
[5] = Volume of distribution in mouse; type: ADME, organism-based; settings: in vivo
[6] = Metabolic stability in human liver microsomes assessed as intrinsic clearance at 0.5 uM measured upto 30 mins in presence of NADPH by UPLC-MS/MS analysis; type: ADME, Microsome; settings: 0.5 h
[7] = molecular target: T1, Dihydrofolate reductase (Homo sapiens, UniProt P00374); assay: Inhibition of human DHFR using 7, 8 dihydrofolate as substrate incubated for 1 hr by plate reader assay; type: toxicity
T1 sequence (P00374 whole entry): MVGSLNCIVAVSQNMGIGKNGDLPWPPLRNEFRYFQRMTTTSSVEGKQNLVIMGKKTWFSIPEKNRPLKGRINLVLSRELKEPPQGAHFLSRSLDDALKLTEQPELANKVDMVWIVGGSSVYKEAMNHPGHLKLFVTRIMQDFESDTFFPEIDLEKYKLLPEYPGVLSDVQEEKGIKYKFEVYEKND

[8] = Solubility of compound in PBS at pH 7.4 incubated for 24 hrs by UPLC analysis; type: physicochemical; settings: for solubility: buffer, pH 7.4, 24 h
[9] = Metabolic stability in human hepatocytes assessed as intrinsic clearance at 0.5 uM measured upto 120 mins in presence of NADPH by UPLC-MS/MS analysis; type: ADME, cell-based, Hepatocyte; settings: 2 h
[10] = Apparent permeability in MDCK-II cells incubated for 1 hr by LC-MS/MS method; type: ADME, cell-based, Canis lupus familiaris; settings: dog
[11] = Half-life in mouse; type: ADME, organism-based; settings: in vivo
[12] = Clearance in mouse; type: ADME, organism-based; settings: in vivo
[13] = Lipophilicity, logP of compound; type: physicochemical; settings: octanol/water
[14] = Observed volume of distribution at steady state in BALB/c mouse at 1 mg/kg, iv measured upto 24 hrs by UPLC/MS-MS analysis; type: ADME, organism-based; settings: in vivo
[15] = Unbound fraction in mouse plasma; type: ADME, cell-free
[16] = AUCinfinity in BALB/c mouse at 1 mg/kg, iv measured upto 24 hrs by UPLC/MS-MS analysis; type: ADME, organism-based; settings: in vivo
[17] = system: HepG2; assay: Cytotoxicity against human HepG2 cells assessed as viable cells at 100 uM incubated for 72 hrs by resazurin dye based plate reader assay; type: toxicity, cell-based; settings: hepg2, 72 h
[18] = AUClast in BALB/c mouse at 3 mg/kg, po measured upto 24 hrs by UPLC/MS-MS analysis; type: ADME, organism-based; settings: in vivo
[19] = Half-life in BALB/c mouse at 1 mg/kg, iv measured upto 24 hrs by UPLC/MS-MS analysis; type: ADME, organism-based; settings: in vivo
[20] = AUClast in BALB/c mouse at 1 mg/kg, iv measured upto 24 hrs by UPLC/MS-MS analysis; type: ADME, organism-based; settings: in vivo
[21] = Tmax in BALB/c mouse at 3 mg/kg, po measured upto 24 hrs by UPLC/MS-MS analysis; type: ADME, organism-based; settings: in vivo
[22] = Oral bioavailability in BALB/c mouse at 3 mg/kg measured upto 24 hrs by UPLC/MS-MS analysis; type: ADME, organism-based; settings: in vivo
[23] = Cmax in BALB/c mouse at 3 mg/kg, po measured upto 24 hrs by UPLC/MS-MS analysis; type: ADME, organism-based; settings: in vivo
[24] = Observed clearance in BALB/c mouse at 1 mg/kg, iv measured upto 24 hrs by UPLC/MS-MS analysis; type: ADME, organism-based; settings: in vivo
[25] = Extrapolated AUC in BALB/c mouse at 1 mg/kg, iv measured upto 24 hrs by UPLC/MS-MS analysis; type: ADME, organism-based; settings: in vivo

IC50 [1] | IC50 [2] | MIC [3] | SMILES | IC50 [7] | also measured
0.017 µM | 0.077 µM | 0.6 µg/mL (≈ 1.47 µM) | Nc1nc(N)c(OCCCOc2ccccc2CCC(=O)O)c(-c2ccncc2)n1 | > 5 µM | 
> 5 µM | > 5 µM |  | CCCCOc1nc(N)nc(N)c1OCCCOc1ccccc1CCC(=O)O | > 5 µM | 
0.0045 µM | 0.0083 µM | 0.6 µg/mL (≈ 1.49 µM) | CCCCCc1nc(N)nc(N)c1OCCCOc1ccccc1CCC(=O)O | 0.43 µM | 
0.24 µM | 0.045 µM | 12.9 µg/mL (≈ 33.1 µM) | NCCCc1nc(N)nc(N)c1OCCCOc1ccccc1CCC(=O)O | > 5 µM | 
0.22 µM | 0.99 µM |  | Nc1ncc(OCCCOc2ccccc2CCC(=O)O)c(N)n1 | 9.7 µM | 
0.0038 µM | 0.00086 µM |  | CCCc1nc(N)nc(N)c1OCCCOc1ccccc1CCC(=O)O | 0.0072 µM | 
0.028 µM | 0.042 µM | 3.6 µg/mL (≈ 7.56 µM) | Nc1nc(N)c(OCCCOc2ccccc2CCC(=O)O)c(-c2ccccc2C(F)(F)F)n1 | > 5 µM | 
 |  | 1.7 µg/mL (≈ 2.9 µM) | NCC[C@H](O)C(=O)N[C@@H]1C[C@H](N)[C@@H](O[C@H]2O[C@H](CN)[C@@H](O)[C@H](O)[C@H]2O)[C@H](O)[C@H]1O[C@H]1O[C@H](CO)[C@@H](O)[C@H](N)[C@H]1O [AMIKACIN] |  | 

The remaining lines, values behind:

SMILES | IC50 [1] | IC50 [2] | MIC [3] | IC50 [7] | also measured
CCc1nc(N)nc(N)c1OCCCOc1ccccc1CCC(=O)O | 0.0043 µM | 0.0008 µM | 10.1 µg/mL (≈ 28 µM) | 0.12 µM | CLH [4]: < 0.76 mL/min/g; Vd [5]: 2.5 L/kg; intrinsic clearance [6]: < 0.4 mL/min/g; solubility [8]: 233 µM (≈ 84 µg/mL); intrinsic clearance [9]: < 0.66 mL/min/g; Papp [10]: 3 ×10⁻⁶ cm/s; half-life [11]: 39 min; clearance [12]: 43.6 mL/min/kg
COc1nc(N)nc(N)c1OCCCOc1ccccc1CCC(=O)O | > 5 µM | > 5 µM |  | > 5 µM | 
CCCOc1nc(N)nc(N)c1OCCCOc1ccccc1CCC(=O)O | > 5 µM | > 5 µM |  | > 5 µM | 
COc1ccccc1-c1nc(N)nc(N)c1OCCCOc1ccccc1CCC(=O)O | 0.21 µM | 0.21 µM |  | > 5 µM | 
COc1cccc(-c2nc(N)nc(N)c2OCCCOc2ccccc2CCC(=O)O)c1 | 0.06 µM | 0.013 µM | 5.6 µg/mL (≈ 12.8 µM) | > 5 µM | 
Nc1nc(N)c(OCCCOc2ccccc2CCC(=O)O)c(CCCCO)n1 | 0.005 µM | 0.0049 µM | 0.1 µg/mL (≈ 0.247 µM) | 0.46 µM | CLH [4]: < 0.76 mL/min/g; intrinsic clearance [6]: < 0.4 mL/min/g; solubility [8]: 227 µM (≈ 91.8 µg/mL); intrinsic clearance [9]: < 0.66 mL/min/g; Papp [10]: 0.8 ×10⁻⁶ cm/s
Nc1nc(N)c(OCCCOc2ccccc2CCC(=O)O)c(C2CCNCC2)n1 | 0.063 µM | 0.03 µM | 6.2 µg/mL (≈ 14.9 µM) | > 5 µM | 
Nc1nc(N)c(OCCCOc2ccccc2CCC(=O)O)c(-c2ccccc2)n1 | 0.007 µM | 0.017 µM | 0.3 µg/mL (≈ 0.734 µM) | > 5 µM | CLH [4]: 2.2 mL/min/g; intrinsic clearance [6]: 0.43 mL/min/g; solubility at 24 h ([8]; PBS, pH 7.4): 52 µM (≈ 21.2 µg/mL); intrinsic clearance [9]: < 0.66 mL/min/g; Papp [10]: 5.4 ×10⁻⁶ cm/s
Nc1nc(N)c(OCCCOc2ccccc2CCC(=O)O)c(C2CCCCC2)n1 | 0.0063 µM | 0.0011 µM | 0.1 µg/mL (≈ 0.241 µM) | 2.1 µM | logP [13]: 3.6; Vdss [14]: 0.9 L/kg; CLH [4]: 2.2 mL/min/g; Fu [15]: ~ 0.02; intrinsic clearance [6]: 0.54 mL/min/g; AUC [16]: 42750 ng·min/mL; solubility [8]: 43 µM (≈ 17.8 µg/mL); intrinsic clearance [9]: < 0.66 mL/min/g; Activity [17]: > 60%; Papp [10]: 3.2 ×10⁻⁶ cm/s; AUClast [18]: 49232 ng·min/mL; t1/2 [19]: 30 min; AUClast [20]: 40507 ng·min/mL; Tmax [21]: 30 min; F [22]: 41%; Cmax [23]: 279 ng/mL; clearance [24]: 23 mL/min/kg; %AUCextra [25]: 5%
Nc1nc(N)c(OCCCOc2ccccc2CCC(=O)O)c(-c2cccc(C(F)(F)F)c2)n1 | 1.9 µM | 0.32 µM |  | > 5 µM | 
COc1ccc(-c2nc(N)nc(N)c2OCCCOc2ccccc2CCC(=O)O)cc1 | 0.0052 µM | 0.017 µM | 0.2 µg/mL (≈ 0.456 µM) | 0.7 µM | CLH [4]: 0.59 mL/min/g; intrinsic clearance [6]: < 0.4 mL/min/g; solubility [8]: 67 µM (≈ 29.4 µg/mL); intrinsic clearance [9]: < 0.66 mL/min/g; Papp [10]: 4.1 ×10⁻⁶ cm/s
